Data: paper PMC6566410, “Novel Diamide-Based Benzenesulfonamides as Selective Carbonic Anhydrase IX Inhibitors Endowed with Antitumor Activity: Synthesis, Biological Evaluation and In Silico Insights” (International Journal of Molecular Sciences, 2019)

Key:
Experiment in all cases: NCI one-dose SRB assay
Format in all cases: cell-based
MCF7 = details: Homo sapiens, MCF7 (Breast Cancer), 1.00E-5 Molar, read-out: Growth Percent
Method: (§1) First, all diamide-based benzenesulfonamides herein reported 5a–h were screened for their antitumor activity at one dose (10^−5 M) assay against a panel of sixty cancer cell lines through the National Cancer Institute (NCI) Developmental Therapeutic Program (www.dtp.nci.nih.gov), according to US-NCI protocol. The cell growth and cell viability were evaluated using the sulforhodamine B (SRB) colorimetric assay.
(§2) This assay was carried out according to the protocol of the Drug Evaluation Branch, NCI, Bethesda. The cell growth and cell viability were evaluated using the sulforhodamine B (SRB) colorimetric assay, as reported earlier.

HCC-2998 = details: Homo sapiens, HCC-2998 (Colon Cancer), 1.00E-5 Molar, read-out: Growth Percent
Method: as §1, §2

SW-620 = details: Homo sapiens, SW-620 (Colon Cancer), 1.00E-5 Molar, read-out: Growth Percent
Method: as §1, §2

U251 = details: Homo sapiens, U-251, U251 (CNS Cancer), 1.00E-5 Molar, read-out: Growth Percent
Method: as §1, §2

COLO 205 = details: Homo sapiens, COLO 205 (Colon Cancer), 1.00E-5 Molar, read-out: Growth Percent
Method: as §1, §2

HOP-92 = details: Homo sapiens, HOP-92 (Non-Small Cell Lung Cancer), 1.00E-5 Molar, read-out: Growth Percent
Method: as §1, §2

SF-295 = details: Homo sapiens, SF-295 (CNS Cancer), 1.00E-5 Molar, read-out: Growth Percent
Method: as §1, §2

PC-3 = details: Homo sapiens, PC-3 (Prostate Cancer), 1.00E-5 Molar, read-out: Growth Percent
Method: as §1, §2

M14 = details: Homo sapiens, M14 (Melanoma), 1.00E-5 Molar, read-out: Growth Percent
Method: as §1, §2

NCI-H322M = details: Homo sapiens, NCI-H322M (Non-Small Cell Lung Cancer), 1.00E-5 Molar, read-out: Growth Percent
Method: as §1, §2

SK-MEL-5 = details: Homo sapiens, SK-MEL-5 (Melanoma), 1.00E-5 Molar, read-out: Growth Percent
Method: as §1, §2

RPMI-8226 = details: Homo sapiens, RPMI-8226 (Leukemia), 1.00E-5 Molar, read-out: Growth Percent
Method: as §1, §2

NCI/ADR-RES = details: Homo sapiens, NCI/ADR-RES (Ovarian Cancer), 1.00E-5 Molar, read-out: Growth Percent
Method: as §1, §2

A549/ATCC = details: Homo sapiens, A549/ATCC (Non-Small Cell Lung Cancer), 1.00E-5 Molar, read-out: Growth Percent
Method: as §1, §2

MDA-MB-231/ATCC = details: Homo sapiens, MDA-MB-231/ATCC (Breast Cancer), 1.00E-5 Molar, read-out: Growth Percent
Method: as §1, §2

K-562 = details: Homo sapiens, K562, K-562 (Leukemia), 1.00E-5 Molar, read-out: Growth Percent
Method: as §1, §2

OVCAR-5 = details: Homo sapiens, OVCAR-5 (Ovarian Cancer), 1.00E-5 Molar, read-out: Growth Percent
Method: as §1, §2

NCI-H23 = details: Homo sapiens, NCI-H23 (Non-Small Cell Lung Cancer), 1.00E-5 Molar, read-out: Growth Percent
Method: as §1, §2

HCT-116 = details: Homo sapiens, HCT-116 (Colon Cancer), 1.00E-5 Molar, read-out: Growth Percent
Method: as §1, §2

ACHN = details: Homo sapiens, ACHN (Renal Cancer), 1.00E-5 Molar, read-out: Growth Percent
Method: as §1, §2

SK-OV-3 = details: Homo sapiens, SK-OV-3 (Ovarian Cancer), 1.00E-5 Molar, read-out: Growth Percent
Method: as §1, §2

CAKI-1 = details: Homo sapiens, CAKI-1 (Renal Cancer), 1.00E-5 Molar, read-out: Growth Percent
Method: as §1, §2

SK-MEL-2 = details: Homo sapiens, SK-MEL-2 (Melanoma), 1.00E-5 Molar, read-out: Growth Percent
Method: as §1, §2

OVCAR-4 = details: Homo sapiens, OVCAR-4 (Ovarian Cancer), 1.00E-5 Molar, read-out: Growth Percent
Method: as §1, §2

T-47D = details: Homo sapiens, T47D, T-47D (Breast Cancer), 1.00E-5 Molar, read-out: Growth Percent
Method: as §1, §2

KM12 = details: Homo sapiens, KM12 (Colon Cancer), 1.00E-5 Molar, read-out: Growth Percent
Method: as §1, §2

OVCAR-3 = details: Homo sapiens, OVCAR-3 (Ovarian Cancer), 1.00E-5 Molar, read-out: Growth Percent
Method: as §1, §2

CCRF-CEM = details: Homo sapiens, CCRF-CEM (Leukemia), 1.00E-5 Molar, read-out: Growth Percent
Method: as §1, §2

NCI-H226 = details: Homo sapiens, NCI-H226 (Non-Small Cell Lung Cancer), 1.00E-5 Molar, read-out: Growth Percent
Method: as §1, §2

MOLT-4 = details: Homo sapiens, MOLT-4 (Leukemia), 1.00E-5 Molar, read-out: Growth Percent
Method: as §1, §2

SF-539 = details: Homo sapiens, SF-539 (CNS Cancer), 1.00E-5 Molar, read-out: Growth Percent
Method: as §1, §2

`NS(=O)(=O)c1ccc(NC(=O)C(=Cc2ccc(Cl)cc2)NC(=O)c2ccccc2)cc1` [Compound 5a, N-(1-(4-Chlorophenyl)-3-oxo-3-((4-sulfamoylphenyl)amino)prop-1-en-2-yl)benzamide] was tested, and the activity at 10 µM (MCF7) was 98.3%, the activity at 10 µM (HCC-2998) was 103% and the activity at 10 µM (SW-620) was 100%. The activity at 10 µM (U251) was 95.3%, the activity at 10 µM (COLO 205) was 104% and the activity at 10 µM (HOP-92) was 98.8%. For the same compound, the activity at 10 µM (SF-295) was 104%, the activity at 10 µM (PC-3) was 105% and the activity at 10 µM (M14) was 102%. For the same compound, the activity at 10 µM (NCI-H322M) was 108%, the activity at 10 µM (SK-MEL-5) was 100% and the activity at 10 µM (RPMI-8226) was 109%. It also gave an activity at 10 µM (NCI/ADR-RES) of 104%, an activity at 10 µM (A549/ATCC) of 101% and an activity at 10 µM (MDA-MB-231/ATCC) of 105%. For the same compound, the activity at 10 µM (K-562) was 109%, the activity at 10 µM (OVCAR-5) was 105% and the activity at 10 µM (NCI-H23) was 103%. It also gave an activity at 10 µM (HCT-116) of 93.9%, an activity at 10 µM (ACHN) of 100% and an activity at 10 µM (SK-OV-3) of 97%. The activity at 10 µM (CAKI-1) was 92.5%, the activity at 10 µM (SK-MEL-2) was 102% and the activity at 10 µM (OVCAR-4) was 95.5%. It also gave an activity at 10 µM (T-47D) of 95.5%, an activity at 10 µM (KM12) of 108% and an activity at 10 µM (OVCAR-3) of 104%. For the same compound, the activity at 10 µM (CCRF-CEM) was 107%, the activity at 10 µM (NCI-H226) was 92.9% and the activity at 10 µM (MOLT-4) was 103%. The activity at 10 µM (SF-539) was 98.8%.
With `NS(=O)(=O)c1ccc(NC(=O)C(=Cc2ccc(Cl)cc2Cl)NC(=O)c2ccccc2)cc1` [Compound 5b, N-(1-(2,4-Dichlorophenyl)-3-oxo-3-((4-sulfamoylphenyl)amino)prop-1-en-2-yl)benzamide] the activity at 10 µM (MCF7) was 90.1%, the activity at 10 µM (HCC-2998) was 103% and the activity at 10 µM (SW-620) was 104%. It also gave an activity at 10 µM (U251) of 97.1%, an activity at 10 µM (COLO 205) of 110% and an activity at 10 µM (HOP-92) of 87%. It also gave an activity at 10 µM (SF-295) of 104%, an activity at 10 µM (PC-3) of 89.4% and an activity at 10 µM (M14) of 102%. The activity at 10 µM (NCI-H322M) was 102%, the activity at 10 µM (SK-MEL-5) was 90.2% and the activity at 10 µM (RPMI-8226) was 92.2%. For the same compound, the activity at 10 µM (NCI/ADR-RES) was 98.2%, the activity at 10 µM (A549/ATCC) was 105% and the activity at 10 µM (MDA-MB-231/ATCC) was 105%. The activity at 10 µM (K-562) was 88.2%, the activity at 10 µM (OVCAR-5) was 108% and the activity at 10 µM (NCI-H23) was 107%. The activity at 10 µM (HCT-116) was 97.3%, the activity at 10 µM (ACHN) was 98.2% and the activity at 10 µM (SK-OV-3) was 96.3%. It also gave an activity at 10 µM (CAKI-1) of 88.6%, an activity at 10 µM (SK-MEL-2) of 95.3% and an activity at 10 µM (OVCAR-4) of 97.7%. The activity at 10 µM (T-47D) was 87.5%, the activity at 10 µM (KM12) was 102% and the activity at 10 µM (OVCAR-3) was 113%. The activity at 10 µM (CCRF-CEM) was 105%, the activity at 10 µM (NCI-H226) was 103% and the activity at 10 µM (MOLT-4) was 92.3%. The activity at 10 µM (SF-539) was 95.7%.
`NS(=O)(=O)c1ccc(NC(=O)C(=Cc2ccc(Br)cc2)NC(=O)c2ccccc2)cc1` [Compound 5c, N-(1-(4-Bromophenyl)-3-oxo-3-((4-sulfamoylphenyl)amino)prop-1-en-2-yl)benzamide] was tested, and the activity at 10 µM (MCF7) was 98.1%, the activity at 10 µM (HCC-2998) was 103% and the activity at 10 µM (SW-620) was 104%. For the same compound, the activity at 10 µM (U251) was 93.1%, the activity at 10 µM (COLO 205) was 105% and the activity at 10 µM (HOP-92) was 94%. It also gave an activity at 10 µM (SF-295) of 99.2%, an activity at 10 µM (PC-3) of 92.7% and an activity at 10 µM (M14) of 109%. For the same compound, the activity at 10 µM (NCI-H322M) was 100%, the activity at 10 µM (SK-MEL-5) was 93.1% and the activity at 10 µM (RPMI-8226) was 97.2%. For the same compound, the activity at 10 µM (NCI/ADR-RES) was 102%, the activity at 10 µM (A549/ATCC) was 102% and the activity at 10 µM (MDA-MB-231/ATCC) was 105%. For the same compound, the activity at 10 µM (K-562) was 92.8%, the activity at 10 µM (OVCAR-5) was 99.8% and the activity at 10 µM (NCI-H23) was 100%. The activity at 10 µM (HCT-116) was 92%, the activity at 10 µM (ACHN) was 100% and the activity at 10 µM (SK-OV-3) was 101%. It also gave an activity at 10 µM (CAKI-1) of 91%, an activity at 10 µM (SK-MEL-2) of 97.3% and an activity at 10 µM (OVCAR-4) of 93.7%. For the same compound, the activity at 10 µM (T-47D) was 92.1%, the activity at 10 µM (KM12) was 102% and the activity at 10 µM (OVCAR-3) was 103%. The activity at 10 µM (CCRF-CEM) was 99.4%, the activity at 10 µM (NCI-H226) was 97.2% and the activity at 10 µM (MOLT-4) was 89.5%. For the same compound, the activity at 10 µM (SF-539) was 92.8%.
